Assay [1] has as its system d-amphetamine induced stimulation. The conditions noted are these: injected into rat nucleus accumbens or striatum; cited from earlier work.
Assay [2] has as its system PCP and MK801-induced behavioral arousal. As to conditions: in vivo; cited from earlier work.
Assay [3] concerns the target T1, NMDA receptor subunits 1A/2A (Rattus norvegicus, UniProt P35439+Q00959).
T1 construct: expressed in transfected cells; host or cells: Xenopus laevis oocytes (cRNA injection; clones from Dr. P. H. Seeburg)
As to the kind of experiment: Electrophysiological assay at NMDA receptor subunits expressed in Xenopus oocytes, 1A/2A. In kind it is cell-based. The conditions noted are these: glutamate 100 μm and glycine 1-100 μm. The essentials: (§1)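 Two-electrode voltage clamp of Xenopus oocytes injected with rat NR1A plus NR2A, 2B or 2C cRNA (1:1), recorded 3–21 days post-injection in Ringer's, pH 7.4. Currents evoked by glutamate (100 μm) with glycine (1–100 μm); antagonist applied by bath perfusion at rising concentrations, IC50 from logistic fit or linear regression for incomplete curves.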

Assay [4] deals with T2, NMDA receptor subunits 1A/2C (Rattus norvegicus, UniProt P35439+Q00961).
T2 construct: expressed in transfected cells; host or cells: Xenopus laevis oocytes (cRNA injection; clones from Dr. P. H. Seeburg)
The experiment in a line: Electrophysiological assay at NMDA receptor subunits expressed in Xenopus oocytes, 1A/2C. The class given is cell-based. The conditions noted are these: Xenopus oocytes; glutamate 100 μm and glycine 1-100 μm; read-out: Subunits IC50, 1A/2C. The essentials: as §1

Assay [5] deals with T3, NMDA receptor subunits 1A/2B (Rattus norvegicus, UniProt P35439+Q00960).
T3 construct: expressed in transfected cells; host or cells: Xenopus laevis oocytes (cRNA injection; clones from Dr. P. H. Seeburg)
As to the kind of experiment: Electrophysiological assay at NMDA receptor subunits expressed in Xenopus oocytes, 1A/2B. In kind it is cell-based. The conditions noted are these: Xenopus oocytes; glutamate 100 μm and glycine 1-100 μm; read-out: Subunits IC50, 1A/2B. An outline of the steps: as §1

Assay [6] has as its system Maximal Electroshock-induced Seizures. The experiment in a line: Maximal electroshock-induced seizures (MES). The class given is in vivo. The conditions noted are these: Mus musculus; mice; 50 mA, 60 pulses/sec, 1 sec.
Excerpt: Seizures were induced by application of current (50 mA, 60 pulses/sec, 0.8 sec pulse width, 1 sec duration, d.c.) through saline-coated corneal electrodes using a Ugo Basile ECT device (Model 7801). […] A tonic seizure was defined as a hindlimb extension in excess of 90 degrees from the plane of the body.
The subject of assay [7] is focal ischemia (MCA occlusion). As to the kind of experiment: Induction of focal ischemia (MCA occlusion), infarct volume. The conditions noted are these: for Mean Infarct Volume: mean ± S.E.M. The class given is in vivo, rats. The procedure: Induction of Focal Ischemia
Rats were intubated and maintained under anesthesia with 2% of halothane. Body temperature was maintained at 37.5° C. during surgery by means of a warming pad and a rectal probe connected to the control unit. The common carotid arteries (CCA) were isolated, and a loose silk ligature was placed around each CCA. A vertical skin incision was made between the left orbit and the auditory canal. The posterior part of the zygoma was removed and a small opening (2.0-2.5 mm) was drilled dorsorostrally to the foramen ovale under constant saline irrigation. The dura was opened with a microsurgical hook and the brain gently retracted to expose the bifurcation of the internal carotid artery and the middle cerebral artery (MCA). The ipsilateral CCA was ligated and the MCA coagulated from its origin to the olfactory tract. The contralateral CCA was occluded with an arterial clip. All cuts were sutured and an i.v. line was connected to an infusion pump for delivery of the compound of the invention. Two hours after MCA occlusion, the clip on the contralateral CCA was removed. Rectal temperature was measured 2 hours after MCA occlusion (MCA-0).

In the next assay the test system is micturition. The conditions noted are these: rat; cited from earlier work.
Another assay has as its system anxiety. The conditions noted are these: in vivo; cited from earlier work.
A further assay concerns Parkinson's disease. The conditions noted are these: at plasma levels leading to NMDA receptor antagonism; cited from earlier work.

Structures can show the parent of a compound that is named as a salt.

T2 sequence (Q00961 20-1237, other chains not shown): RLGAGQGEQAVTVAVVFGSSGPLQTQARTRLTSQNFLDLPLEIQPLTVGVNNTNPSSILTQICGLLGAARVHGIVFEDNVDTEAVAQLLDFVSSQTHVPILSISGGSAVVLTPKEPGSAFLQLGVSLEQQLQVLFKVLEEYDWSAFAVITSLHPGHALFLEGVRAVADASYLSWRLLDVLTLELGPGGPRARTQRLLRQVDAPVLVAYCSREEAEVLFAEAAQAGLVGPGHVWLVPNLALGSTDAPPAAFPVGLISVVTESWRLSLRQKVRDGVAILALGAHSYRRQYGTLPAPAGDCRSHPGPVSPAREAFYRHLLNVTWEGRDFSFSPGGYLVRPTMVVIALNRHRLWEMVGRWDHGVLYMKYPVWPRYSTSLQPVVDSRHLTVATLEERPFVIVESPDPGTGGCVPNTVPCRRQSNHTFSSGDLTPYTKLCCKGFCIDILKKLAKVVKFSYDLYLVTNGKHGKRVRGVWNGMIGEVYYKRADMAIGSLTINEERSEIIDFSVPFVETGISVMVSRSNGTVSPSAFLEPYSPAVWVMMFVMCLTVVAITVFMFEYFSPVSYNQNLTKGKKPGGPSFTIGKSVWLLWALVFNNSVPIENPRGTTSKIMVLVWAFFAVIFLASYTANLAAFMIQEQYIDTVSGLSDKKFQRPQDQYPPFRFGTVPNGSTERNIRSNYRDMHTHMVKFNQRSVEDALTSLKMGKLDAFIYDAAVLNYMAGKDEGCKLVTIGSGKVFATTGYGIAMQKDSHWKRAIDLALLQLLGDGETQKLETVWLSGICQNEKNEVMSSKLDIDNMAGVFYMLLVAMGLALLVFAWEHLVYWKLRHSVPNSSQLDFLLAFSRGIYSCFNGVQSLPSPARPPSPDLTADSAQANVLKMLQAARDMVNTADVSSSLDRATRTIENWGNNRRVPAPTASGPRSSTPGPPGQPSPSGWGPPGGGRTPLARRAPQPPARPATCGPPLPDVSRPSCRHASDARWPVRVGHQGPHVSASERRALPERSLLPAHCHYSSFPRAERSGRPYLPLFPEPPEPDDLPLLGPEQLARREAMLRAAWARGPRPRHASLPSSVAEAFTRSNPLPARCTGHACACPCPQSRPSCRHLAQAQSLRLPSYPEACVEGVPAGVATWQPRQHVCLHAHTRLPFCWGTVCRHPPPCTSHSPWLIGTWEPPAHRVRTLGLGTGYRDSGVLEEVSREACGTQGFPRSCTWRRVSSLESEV
T1 sequence (Q00959 20-1464 limits assumed, other chains not shown): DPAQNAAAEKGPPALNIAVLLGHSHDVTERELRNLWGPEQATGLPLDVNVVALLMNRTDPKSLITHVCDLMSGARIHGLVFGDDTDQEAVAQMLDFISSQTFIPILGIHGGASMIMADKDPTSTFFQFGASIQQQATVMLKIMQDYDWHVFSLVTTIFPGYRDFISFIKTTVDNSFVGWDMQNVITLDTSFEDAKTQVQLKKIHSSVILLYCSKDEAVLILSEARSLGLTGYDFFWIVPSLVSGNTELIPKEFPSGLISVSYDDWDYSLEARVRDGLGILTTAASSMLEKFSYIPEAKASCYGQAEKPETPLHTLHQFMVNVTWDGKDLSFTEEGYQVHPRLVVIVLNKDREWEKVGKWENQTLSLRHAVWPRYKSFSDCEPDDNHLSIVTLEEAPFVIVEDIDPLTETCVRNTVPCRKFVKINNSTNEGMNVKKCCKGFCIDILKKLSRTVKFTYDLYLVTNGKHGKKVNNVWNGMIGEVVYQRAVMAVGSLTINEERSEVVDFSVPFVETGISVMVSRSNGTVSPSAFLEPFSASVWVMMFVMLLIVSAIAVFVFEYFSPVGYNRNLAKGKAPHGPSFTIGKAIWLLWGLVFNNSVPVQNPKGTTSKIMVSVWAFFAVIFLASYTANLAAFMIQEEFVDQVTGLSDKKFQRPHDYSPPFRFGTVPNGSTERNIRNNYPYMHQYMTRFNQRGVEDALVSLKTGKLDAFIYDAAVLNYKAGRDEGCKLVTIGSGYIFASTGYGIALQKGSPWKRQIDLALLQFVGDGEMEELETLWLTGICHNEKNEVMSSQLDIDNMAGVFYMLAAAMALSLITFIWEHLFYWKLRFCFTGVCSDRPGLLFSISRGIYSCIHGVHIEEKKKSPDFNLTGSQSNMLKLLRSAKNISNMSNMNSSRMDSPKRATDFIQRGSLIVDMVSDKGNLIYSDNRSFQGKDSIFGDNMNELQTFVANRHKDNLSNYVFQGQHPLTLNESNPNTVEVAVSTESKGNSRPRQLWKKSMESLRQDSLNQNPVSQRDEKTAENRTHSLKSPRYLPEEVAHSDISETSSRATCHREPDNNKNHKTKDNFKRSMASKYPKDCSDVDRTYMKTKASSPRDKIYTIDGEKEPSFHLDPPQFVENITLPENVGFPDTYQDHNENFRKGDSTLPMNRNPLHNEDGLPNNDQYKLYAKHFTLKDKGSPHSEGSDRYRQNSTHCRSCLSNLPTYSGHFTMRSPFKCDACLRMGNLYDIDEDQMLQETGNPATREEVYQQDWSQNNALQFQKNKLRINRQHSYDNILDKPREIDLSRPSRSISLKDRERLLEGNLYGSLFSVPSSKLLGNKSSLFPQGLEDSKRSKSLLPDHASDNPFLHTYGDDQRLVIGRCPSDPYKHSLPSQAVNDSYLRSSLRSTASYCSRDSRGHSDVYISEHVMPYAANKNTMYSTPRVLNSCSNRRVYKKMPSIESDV
T3 sequence (Q00960 27-1482, other chains not shown): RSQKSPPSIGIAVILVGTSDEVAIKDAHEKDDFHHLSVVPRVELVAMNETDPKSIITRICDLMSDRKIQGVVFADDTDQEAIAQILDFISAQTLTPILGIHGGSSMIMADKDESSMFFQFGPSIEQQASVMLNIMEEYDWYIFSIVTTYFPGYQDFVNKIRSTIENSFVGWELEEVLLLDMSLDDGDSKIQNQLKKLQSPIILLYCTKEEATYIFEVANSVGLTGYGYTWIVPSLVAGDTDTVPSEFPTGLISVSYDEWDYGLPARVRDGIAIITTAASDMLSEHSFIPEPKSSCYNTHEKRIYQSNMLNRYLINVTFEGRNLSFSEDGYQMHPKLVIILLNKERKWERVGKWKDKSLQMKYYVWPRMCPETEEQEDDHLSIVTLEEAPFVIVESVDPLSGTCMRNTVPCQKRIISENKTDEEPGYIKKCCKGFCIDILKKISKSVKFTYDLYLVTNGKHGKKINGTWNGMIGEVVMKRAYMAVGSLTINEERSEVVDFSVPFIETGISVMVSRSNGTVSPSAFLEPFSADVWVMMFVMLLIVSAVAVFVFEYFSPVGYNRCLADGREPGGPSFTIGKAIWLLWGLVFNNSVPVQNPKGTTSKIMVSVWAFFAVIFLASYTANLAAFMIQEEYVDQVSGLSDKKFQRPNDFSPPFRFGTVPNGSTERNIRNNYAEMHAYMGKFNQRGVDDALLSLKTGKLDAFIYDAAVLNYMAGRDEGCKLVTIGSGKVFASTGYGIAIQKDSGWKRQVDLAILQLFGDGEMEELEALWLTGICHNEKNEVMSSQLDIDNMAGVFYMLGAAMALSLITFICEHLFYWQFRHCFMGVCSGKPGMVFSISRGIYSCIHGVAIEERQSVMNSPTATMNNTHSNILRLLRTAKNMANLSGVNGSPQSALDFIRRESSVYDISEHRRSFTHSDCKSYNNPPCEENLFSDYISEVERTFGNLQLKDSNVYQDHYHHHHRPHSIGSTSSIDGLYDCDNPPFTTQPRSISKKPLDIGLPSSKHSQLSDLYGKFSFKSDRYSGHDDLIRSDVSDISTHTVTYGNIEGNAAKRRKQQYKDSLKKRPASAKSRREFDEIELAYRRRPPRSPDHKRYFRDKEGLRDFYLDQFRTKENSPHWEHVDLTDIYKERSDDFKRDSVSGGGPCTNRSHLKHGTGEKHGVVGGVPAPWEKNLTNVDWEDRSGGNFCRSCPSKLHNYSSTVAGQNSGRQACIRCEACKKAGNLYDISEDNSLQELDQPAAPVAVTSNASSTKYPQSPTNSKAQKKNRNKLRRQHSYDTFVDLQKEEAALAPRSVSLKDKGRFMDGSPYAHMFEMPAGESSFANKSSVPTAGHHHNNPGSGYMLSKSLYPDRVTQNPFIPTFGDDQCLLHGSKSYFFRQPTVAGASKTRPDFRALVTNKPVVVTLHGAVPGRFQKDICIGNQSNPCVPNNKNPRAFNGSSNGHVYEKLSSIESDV

As for `O=C(O)c1cc(O)c2c(Cl)cc(Cl)cc2n1` [5,7-dichlorokynurenic acid], the “antagonism of d-amphetamine induced stimulation” value in [1] is listed as “selectively antagonize d-amphetamine induced stimulation when injected into rat nucleus accumbens but not in striatum”.
In the case of `N[C@@H]1CCN(O)C1=O` [(+) HA-966], in [1], the “antagonism of d-amphetamine induced stimulation” value is “selectively antagonize d-amphetamine induced stimulation when injected into rat nucleus accumbens but not in striatum”. Besides, the “block of PCP and MK801-induced behavioral arousal” value in assay [2] was “block PCP and MK801-induced behavioral arousal”.
For `c1ccc(CC2CCN(CCOc3ccccc3)CC2)cc1` [Ex. 1, 4-Benzyl-1-(2-phenoxyethyl)piperidine], the IC50 in assay [3] is > 100 µM; in assay [4], > 100 µM; in [5], 0.8 µM. For the same molecule, in assay [6], the ED50 was 2 mg/kg. Moreover, the “Mean Infarct Volume” value in assay [7] (Cortex, rats, 2.5 mg/Kg i.v. bolus then 1.75 mg/Kg for 22 hours, n = 12, vehicle 120.450 ± 20.166) amounted to 50.450 ± 11.428 mm^3; in assay [7] (Subcortex, rats, 2.5 mg/Kg i.v. bolus then 1.75 mg/Kg for 22 hours, n = 12, vehicle 74.462 ± 7.481) it was 67.400 ± 6.775 mm^3. For the same molecule, the “% of Ischemia Protection” value in [7] (Cortex, rats, 2.5 mg/Kg i.v. bolus then 1.75 mg/Kg for 22 hours, p = 0.0071) came to 58%; in [7] (Subcortex, rats, 2.5 mg/Kg i.v. bolus then 1.75 mg/Kg for 22 hours, p = 0.4936), 9.5%. The protection from ischemia result in assay [7] (table 4 and FIG. 1, 2.5 mg/Kg i.v. bolus then 1.75 mg/Kg for 22 hours) was “significant protection from ischemia”.
Consider `Fc1ccc(OCCN2CCC(Cc3ccc(Cl)cc3)CC2)cc1` [Ex. 25, 4-(4-Chlorobenzyl)-1-(2-(4-fluorophenoxy)ethyl)piperidine hydrobromide], for which the values for the IC50 in assay [3], in assay [4] and in assay [5] were 60 µM, 80 µM and 1 µM, respectively. The 50% effect level in [6] (ED50) was put at a dose of 4 mg/kg. Further, the “Mean Infarct Volume” value in assay [7] (Cortex, 10 mg/Kg i.v. bolus, n = 7, vehicle 114.936 ± 22.3) stood at 41.857 ± 19.984 mm^3; in [7] (Subcortex, 10 mg/Kg i.v. bolus, n = 7, vehicle 81.564 ± 5675) it was 43.343 ± 17.37 mm^3. The “% of Ischemia Protection” value in [7] (Cortex, 10 mg/Kg i.v. bolus, p = 0.0381) was determined as 64%; in [7] (Subcortex, 10 mg/Kg i.v. bolus, p = .0320), 47%. Also, in assay [7] (Table 5 and FIG. 2, 10 mg/Kg i.v. bolus), the protection from ischemia entry was “significant protection from ischemia”.
In the case of `Fc1ccc(CC2CCN(CCOc3ccc4[nH]c(=S)[nH]c4c3)CC2)cc1` [Ex. 175, 4-(4-Fluorobenzyl)-1-(2-(2-thioxobenzimidazol-5-oxy)ethyl)piperidine], the IC50 in [3] came out at 48 µM; in assay [4], 70 µM; in assay [5], 0.02 µM. It took a dose of 8 mg/kg to reach the 50% effect level in assay [6] (ED50).
On the same counts, the results for `S=c1[nH]c2ccc(OCCN3CCC(Cc4ccc(Cl)cc4)CC3)cc2[nH]1` [Ex. 176, 4-(4-Chlorobenzyl)-1-(2-(2-thioxobenzimidazol-5-oxy)ethyl)piperidine] are 25 µM, 50 µM, 0.03 µM and 7.5 mg/kg.
With `O=c1[nH]c2ccc(OCCN3CC=C(Cc4ccccc4)CC3)cc2[nH]1` [Ex. 177, 4-Benzyl-1-(2-(2-oxobenzimidazol-5-oxy)ethyl)-1,2,5,6-tetrahydropyridine], the IC50 in assay [3] was 35 µM; in assay [4], 210 µM; in [5], 0.1 µM. This molecule also displayed an ED50 in assay [6] of 5 mg/kg.
`O=c1[nH]c2cc(OCCN3CCC(Cc4ccccc4)CC3)ccc2o1` [Ex. 181, 4-Benzyl-1-(2-(2-oxobenzoxazol-5-oxy)ethyl)piperidine]: the IC50 in assay [3] turned out to be 110 µM; in assay [4], 140 µM; in [5] it was 1 µM. Besides, the 50% effect level in assay [6] (ED50) was put at a dose of 6 mg/kg.
With `O=c1[nH]c2ccc(OCCN3CCC(Cc4ccccc4)CC3)cc2o1` [Ex. 182, 4-Benzyl-1-(2-(2-oxobenzoxazol-6-oxy)ethyl)piperidine], the IC50 came out at 43 µM in [3], 210 µM in [4] and 1 µM in assay [5]. Besides, the ED50 in assay [6] was > 20 mg/kg.
As to `Oc1ccc2cc(OCCN3CCC(Cc4ccccc4)CC3)ccc2c1` [Ex. 189, 4-Benzyl-1-(2-(2-hydroxynaphth-6-oxy)ethyl)piperidine], the IC50 in assay [3] is 7 µM; in [4] it was 130 µM; in assay [5] it was 0.1 µM. For the same molecule, it took a dose of 7 mg/kg to reach the 50% effect level in assay [6] (ED50).
Turning to `O=C1Cc2cc(OCCN3CCC(Cc4ccccc4)CC3)ccc2N1` [Ex. 194, 4-Benzyl-1-(2-(2-oxo-1,3-dihydroindol-5-oxy)ethyl)piperidine], the IC50 in assay [3] was > 300 µM; in [4] it was > 300 µM; in assay [5], 0.06 µM. Also, the ED50 in [6] was found to be 2.5 mg/kg.
Turning to `C[C@]12N[C@H](Cc3ccccc31)c1ccccc12` [MK801], in the assay with micturition, the frequency of micturition entry is “increased the frequency of micturition in rat”. The “effect in animal models of anxiety” value in the assay on anxiety is given as “effective in a variety of animal models of anxiety”.
Consider `NC12CC3CC(CC(C3)C1)C2` [amantadine], for which the “antiparkinsonian-like activity in animals” value with Parkinson's disease is “showed antiparkinsonian-like activity in animals”.
For `CC12CC3CC(C)(C1)CC(N)(C3)C2` [memantine], the “antiparkinsonian-like activity in animals” value with Parkinson's disease is listed as “showed antiparkinsonian-like activity in animals”.

Values taken from US6124323A, “4-substituted piperidine analogs and their use as subtype selective NMDA receptor antagonists” (Warner-Lambert Company, priority 1998, dated 2000).
